Assay results: patent US12606552B2, “Bifunctional compound, preparation method therefor, and use thereof” (SUZHOU KINTOR PHARMACEUTICALS, INC., priority 2020, dated 2026)

Test: Distribution of compounds in sebaceous glands and blood in golden hamsters
Type: in vivo
Conditions: for mean drug concentration in sebaceous glands: after 8 h
Protocol: Activity Assay Example 9: Distribution of Compounds in Sebaceous Glands and Blood in Golden Hamsters
6 male golden hamsters were selected for the experiment and divided into two groups (three in each group). The drug was administered by a single smear route. All animals fasted overnight before administration.
1.1 Experimental Method 1.1.1 Dosage of Administration
A46 was weighed into a 50 ml centrifuge tube, added with mixed solvent (75% ethanol, 15% glyceryl tri(2-ethylhexanoate) and 10% glycerol), vortexed and heated at 60° C. until A46 was completely dissolved. A46 was prepared at a concentration of 30 mg/mL, 100 mg/mL, and stored at room temperature in the dark.
In group 1, the dosage for smear administration was 1.2 mg, corresponding to an administration volume of 30 mL/kg. In group 2, the dosage for smear administration was 4 mg, and the administration volume was 100 mL/kg.
1.1.2 Method of Administration
During the experiment, the 2 sebaceous glands of all the hamsters were coated with the corresponding medicinal solution (the dosage was about 0.02 mL).
1.1.3 Observation of Animal Status
Immediately after administration, whether the animals have abnormal reactions was observed. If there were no abnormal reactions, the animals were observed twice during the experiment. If any abnormal reactions were found, the number of observations was recorded and increased in time until the animals returned to normal, or the experiment ended.
1.1.4 Sample Collection and Storage
All experimental animals were fasted overnight before administration, and blood was collected at corresponding time points into blood collection tubes containing heparin sodium anticoagulant after administration. After collection of whole blood, the blood collection tube was immediately shook gently and placed on ice, then centrifuged (4° C., 4000 rpm, 10 min) to collect the supernatant plasma sample (plasma volume ≥100 μL), and the supernatant plasma sample was stored at −80° C. before analysis. Plasma sample was collected for 8 h.

SMILES: Cc1ncsc1-c1ccc(CNC(=O)[C@@H]2C[C@@H](O)CN2C(=O)[C@@H](NC(=O)COCCCCOc2ccc(-c3ccc(N4C(=S)N(c5ccc(C#N)c(C(F)(F)F)c5F)C(=O)C4(C)C)cn3)cc2)C(C)(C)C)cc1 [Compound A46]
- mean drug concentration in sebaceous glands (group 1, single smear 1.2 mg (30 mg/mL)): 13513 ng/mL
- mean drug concentration in sebaceous glands (group 2, single smear 4 mg (100 mg/mL)): 24223 ng/mL
- maximum blood concentration (group 2, single smear 4 mg (100 mg/mL), one out of 3 animals, sampling 0.25-8 h): 10.6 ng/mL
- blood concentration (below the detection limit) (group 2, single smear 4 mg (100 mg/mL), remaining 2 animals, sampling 0.25-8 h): < 2 ng/mL
